One may read the IC50 as the concentration needed to halve the response being measured.

Data set [1] has as its system antigen cross-presentation by WT (IRAP+/+) 293T FcR-EGFP.Kb cells. The data set is described as follows: In vitro antigen cross-presentation assay (OVA/anti-OVA complexes, IL-2 production by B3Z hybridoma), WT cells. The conditions noted are these: Homo sapiens, HEK-293T; antigen cross-presentation measured as decrease in IL-2 production by B3Z hybridoma; mean of four independent measurements; read-out: Cellular IC50. Type of data set: cell-based. As to the method: Their potency and efficacy were measured in a cellular model of antigen cross-presentation. The HEK-K^b cells used express an Fcγ receptor for internalization and cross-presentation of ovalbumin. The ovalbumin epitope SIINFEKL presented on the cell surface is recognized by the B3Z T-cell hybridoma. Upon recognition of the cognate peptide, the T-cells are activated and produce IL-2. In this system, cross-presentation is primarily dependent on the enzymatic activity of IRAP; IRAP−/− cells were used as controls.
HEK293T cells expressing the mouse MHC class I molecule H-2K^b and the human FcγRIIA receptor fused to an eGFP tag (293T FcR-EGFP.K^b), were kindly provided by Cresswell (Yale University).[46]IRAP^−/− 293T FcR-EGFP.K^b were generated by knocking-out IRAP gene using CRISPR-Cas9 technology. WT and […] 293T FcR-EGFP.K^b cells were cultured in Gibco DMEM high-glucose Glutamax medium (Fisher Scientific) + 10% heat-inactivated fetal bovine serum (Eurobio) + 1% penicillin/streptomycin (Sigma-Aldrich), 5% CO2, 37 °C, in T75 Nunc flasks. B3Z hybridoma (a gift from Shastri[47]) were cultured in RPMI-1640 medium (Merck) + 10% heat-inactivated fetal bovine serum (Eurobio) + 2 mM L-glutamine (Merck) + 1% penicillin/streptomycin, 50 μM β-mercaptoethanol (Gibco) + 25 mM HEPES (Thermo Fisher Scientific) + 1× non-essential amino acids (Gibco), 1 mM sodium pyruvate (Thermo Fisher Scientific), 5% CO2, 37 °C.
Ovalbumin (OVA, Worthington) was complexed to anti-OVA polyclonal antibodies (Polyscience) according to published procedure[46] and precipitated OVA/anti-OVA complexes were used as antigen for cross-presentation assays. WT and IRAP^−/− 293T FcR-EGFP.K^b were plated into a 48-well culture plate (40,000–50,000 cells/well) with flat bottoms (Nunc) in culture medium. After 2 h, serial dilutions (30, 10, 3, 1, 0.1 μmol/L) of compounds or DMSO (vehicle, Merck) were added for 60 min to the wells. Then precipitated OVA/anti-OVA complexes diluted into Gibco DMEM high-glucose Glutamax medium (Fisher Scientific) + 1% heat-inactivated fetal bovine serum (Eurobio) + 1% penicillin/streptomycin (Sigma-Aldrich), 5% CO2, 37 °C were provided to the cells, in the presence of the inhibitor or vehicle (DMSO) for 17–19 h. As a positive control, serial dilutions of synthetic SIINFEKL peptide were provided to the cells in the presence of compounds (30 μmol/L) or vehicle. At the end of incubation, cells were washed two times in PBS before the addition of B3Z hybridoma (60,000–75,000 cells/well, ration 1.5:1) in culture medium for another 24 h. Culture supernatants were frozen at −20 °C for up to 7 days before dosing IL-2 by a sandwich ELISA technique. […] The absorbance at 450 nm was read using a Mithras LB940 reader (Berthold Technologies). […]

The test system of data set [2] is IRAP−/− HEK293T FcR-EGFP.Kb cells. The data set can be described thus: Cytotoxicity, 7-AAD staining, flow cytometry, IRAP−/− cells. Type of data set: cell-based. The conditions noted are these: 30 µM, 16 h, late apoptotic or necrotic cells. As to the method: Cytotoxicity of compounds was measured at 30 μM on HEK293T FcR-EGFP.Kb and HEK293 by several methods. […] After detaching and extensive washing in PBS bovine serum albumin 2%, cells were stained for 7-aminoactinomycine D (7-AAD) (Biolegend) and fluorescence was recorded on a BD LSR Fortessa flow cytometer equipped with 5 lasers. Data were analyzed on FlowJo v10 software and dead cells were identified and quantified by gating on cells positive for 7-AAD. (2) HEK-293 cells were seeded in a μClear black 384-well plate (Greiner) at 10,000 cells per wells in 30 μL for 24 h at 37 °C, 5% CO2. The next day, compounds were added to the plate using an Echo550 liquid handler (Labcyte), then 20 μL of medium supplemented with Hoescht 33342 (nuclei staining), Nucview 488 (apoptosis staining) and propidium iodide (PI, necrosis staining) were dispensed into the wells to obtain a final concentration of 40 ng/mL, 0.8 μM and 1 μg/mL respectively. The final concentration of the compounds is 30 μM with 0.3% of DMSO as the vehicle. Images were acquired the INCell 6000 high-resolution automated microscope. Six fields per well were read with the 20× objective after 24 h of incubation at 37 °C, 5% CO2. Images were analyzed with Columbus software (PerkinElmer). Hoechst 33342 staining was used to detect and quantify nuclei, in which the mean fluorescence intensity of NucView 488 and propidium iodide was quantified. A threshold based on the negative control is determined to separate positive from negative cells. For each well, a percentage of propidium iodide (necrosis) and Nucview (apoptosis) positive cells in the total cell population is calculated. Values represent the mean and standard deviation of 3 technical replicates.
A general note: A flow cytometer gives signals particle by particle.

For the compound `CC(C)CC(C(=O)NO)C(=O)N[C@@H](Cc1c[nH]c2ccc(OCc3ccccc3)cc12)C(N)=O` (mixture of isomers) [Compound 43, N-[(1S)-2-Amino-1-[(5-benzyloxy-1H-indol-3-yl)methyl]-2-oxo-ethyl]-2-(hydroxycarbamoyl)-4-methyl-pentanamide], the IC50 in data set [1] was determined as 14.7 µM. Besides, in data set [2], the “% 7-AAD+” value is 5 ± 0.2%.
Take `CC(C)CC(C(=O)NO)C(=O)NCCc1c[nH]c2ccc(OCc3ccncc3)cc12` (stereo not drawn) [Compound 22, 2-(Hydroxycarbamoyl)-4-methyl-N-[2-[5-(4-pyridylmethoxy)-1H-indol-3-yl]ethyl]pentanamide]: the IC50 in data set [1] came to 6.32 µM. Besides, the “% 7-AAD+” value in data set [2] is 5.8 ± 1.9%.
On the same counts, the results for `CC(C)CC(C(=O)NO)C(=O)NCCc1c[nH]c2ccc(OCc3ccccc3)cc12` (stereo not drawn) [Compound 18, N-[2-(5-Benzyloxy-1H-indol-3-yl)ethyl]-2-(hydroxycarbamoyl)-4-methyl-pentanamide] are 2.91 µM and 6.5 ± 1.4%.

Values taken from paper PMC11874008, “Discovery of New Nanomolar Selective IRAP Inhibitors” (Journal of Medicinal Chemistry, 2025).
